“And” between values parts separate entries of the source, which are not always exact repeats. Equal values may be shown once.
What was measured:
Assay type in all cases: cell-based, human
[1] = tested on: P-tau S396 in A152T neurons; assay: Western blot of P-tau S396 in A152T neurons; conditions: for S396 P-Tau (relative to vehicle): 4 h treatment
From the text: (§1) Cells from individuals carrying the tau risk variant A152T (c.1407G > A; NCBI RefSeq NM_001123066, rs143624519), the autosomal dominant mutation P301L (c.C1907T; NCBI NM_001123066, rs63751273), or age-matched non-mutant WT tau were employed in this study (Figure 2—source data 1). Dermal fibroblasts from the tau-P301L carrier and the healthy individual were generated from a skin biopsy from subjects within the MGH Frontotemporal Disorders Unit as part of the MGH Neurodegeneration Repository. Approval for human subjects’ work was obtained under a Partners/MGH-approved IRB Protocol (#2010P001611/MGH). Fibroblasts were reprogrammed into iPSCs, which were subsequently converted into cortical-enriched neural progenitor cells (NPCs) and differentiated into neuronal cells as previously described ([Almeida et al., 2012]; [Seo et al., 2017]; [Silva et al., 2016]; [Sheridan et al., 2011]) (Silva MC, Manuscript in preparation, 2019). Briefly, cells were cultured in 6-well (Fisher Scientific Corning, Pittsburgh, PA) or 96-well (Fisher Scientific Corning) plates coated with poly-ornithine (20 μg/mL in water, Sigma, St. Louis, MO) and laminin (5 μg/mL in PBS, Sigma) (POL-coated), in DMEM/F12-B27 media [70% DMEM (Gibco, Carlsbad, CA), 30% Ham’s-F12 (Fisher Scientific Corning), 2% B27 (Gibco), 1% penicillin-streptomycin (Gibco)]. Media was supplemented with EGF (20 ng/mL, Sigma), FGF (20 ng/mL, Stemgent, Cambridge, MA) and heparin (5 μg/mL, Sigma), to promote NPC proliferation and expansion. The growth factors were withdrawn to promote neural differentiation for 6 to 8 weeks, with half media change two times per week. Cell lines’ identity was authenticated by SANGER sequencing, karyotyping and ACGH analysis at different stages of culture maintenance from iPSC to NPC. All working cell lines tested negative for mycoplasma contamination.
(§2) Compound treatment in six-well plates was performed in 2 mL media volume by removing 1 mL of conditioned media from the culture and adding 1 mL of new media pre-mixed with the compound at the appropriate 2X concentration, followed by incubation at 37°C for the designated period of time. Compound treatment in 96-well plates was performed in 100 μL media volume by adding compound directly to each well, followed by incubation at 37°C. When testing the effect of drug pre-treatment, the first compound was added as described above for the period of time needed, and then QC-01–175 was added directly onto the media without media exchange.
(§3) Neurons differentiated in six-well plates for 6 weeks were washed and collected in PBS, lysed in RIPA buffer (Boston Bio-Products, Boston, MA) supplemented with 2% SDS (Sigma), protease inhibitors cocktail (Roche Complete Mini tablets, Mannheim, Germany), and phosphatase inhibitors cocktail (Sigma), followed by water sonication (Bransonic Ultrasonic Baths, Thomas Scientific, Danbury, CT) and 20,000 g centrifugation for 20 min. Supernatants were transferred to new tubes and total protein concentration was quantified with the Pierce BCA Protein Assay Kit (ThermoFisher Scientific, Carlsbad, CA). Human recombinant tau protein ladder was purchased from Sigma. Electrophoresis were performed with the Novex NuPAGE SDS-PAGE Gel System (Invitrogen, Carlsbad, CA), by running 10 μg of total protein (pre-boiled in SDS-DTT loading buffer, NEB, Ipswich, MA) on pre-cast SDS-PAGE. Gels were transferred onto PVDF membranes (EMD Millipore) using standard procedures. Membranes were blocked in 5% BSA (Sigma) in Tris-buffered saline with Tween-20 (TBST/Biorad, Hercules, CA) for 2 hr, incubated overnight with primary antibody (see antibody section) at 4°C, followed by corresponding HRP-linked secondary antibody incubation (Cell Signaling Technology, Danvers, MA). […]

[2] = tested on: A152T neurons; assay: Neuronal stress and viability assay, rescue of Aβ(1-42) toxicity (Alamar Blue); conditions: for neuronal viability, compound alone: A152T neurons, 24 hr treatment, 5 μM
[3] = tested on: tau-degrader-CRL4^CRBN complex; assay: Co-immunoprecipitation, ternary complex formation in A152T neurons; conditions: 4 hr; for CRBN detected after immunoprecipitation of tau (TAU5): 1 μM ± carfilzomib or bortezomib
Experimental: NPCs were plated and differentiated for 6 weeks, as described above, in six-well POL-coated plates. For each pull-down experiment, three wells of treated neurons were PBS-washed and combined into a single pellet. To stabilize and detect complex formation, all steps were performed on ice or at 4°C. […] The supernatant (Input) was transferred to a new tube and immediately aliquoted for the BCA assay to determine protein concentration. Antibodies, 10 μg of TAU5 and 5 μg of DDB1, were bound to Dynabeads (1.5 mg) per each condition to be tested (treatments). Immunoprecipitation of the target antigen (tau or DDB1) was performed by mixing protein lysate (200 μL sample corresponding to 300 μg of total protein) to each Dynabeads-antibody complex. All other steps followed the kit’s protocol. Elution was accomplished with 20 μL Elution Buffer and 10 μL of SDS-sample buffer with DTT (New England Biolabs), followed by removal of the magnetic beads. A volume of 10 μL of each IP sample was loaded onto SDS-PAGE for western blotting as described above.

[4] = tested on: total tau (TAU5) in A152T neurons; assay: Western blot of total tau in A152T neurons; conditions: 24 hr
From the text: as §1, §2, §3

[5] = tested on: P-tau S396 in tau-P301L patient iPSC-derived neurons; assay: P-Tau[pS396] ELISA in P301L neurons; conditions: for S396 P-Tau (ELISA, relative to vehicle-treated): 24 h, replicate values
From the text: as §1, §2
Neuronal cells differentiated in six-well plate format for 6 weeks, were collected as described for western blotting, and lysed in ELISA-compatible buffer (Invitrogen FNN0011), supplemented with 1 mM PMSF, protease (Roche) and phosphatase (Sigma) inhibitors cocktails, for 30 min on ice with quick vortexing. Lysates were clarified by centrifugation at 13,000 rpm at 4°C for 10 min. The clear lysates were then transferred to new microfuge tubes and total protein concentration was quantified with the Pierce BCA Protein Assay Kit (ThermoFisher Scientific). ELISA assays were performed according to manufacturer instructions: Human Total Tau ELISA (Invitrogen Kit KHB0041/KHB0042) and P-Tau[pS396] Human ELISA Kit (Invitrogen Kit KHB7031). Data was plotted using GraphPad Prism version 8.0.

| Structure (SMILES) | neuronal viability, compound alone [2] | tau detected after immunoprecipitation of DDB1 ([3]; 1 μM ± carfilzomib) | CRBN detected after immunoprecipitation of tau (TAU5) [3] | S396 P-Tau (ELISA, relative to vehicle-treated) ([5]; 0.001 μM compound) | S396 P-Tau (ELISA, relative to vehicle-treated) ([5]; 0.01 μM compound) | S396 P-Tau (ELISA, relative to vehicle-treated) ([5]; 0.05 μM compound) | S396 P-Tau (ELISA, relative to vehicle-treated) ([5]; 0.1 μM compound) | S396 P-Tau (ELISA, relative to vehicle-treated) ([5]; 0.5 μM compound) | S396 P-Tau (ELISA, relative to vehicle-treated) ([5]; 1 μM compound) | S396 P-Tau (ELISA, relative to vehicle-treated) ([5]; 10 μM compound) | also measured |
| --- | --- | --- | --- | --- | --- | --- | --- | --- | --- | --- | --- |
| O=C(CCc1ccc2c(c1)[nH]c1ccncc12)NCCOCCOCCNc1cccc2c1C(=O)N(C1CCC(=O)NC1=O)C2=O (stereo not drawn) [QC-01–175] | no change in neuronal viability | co-IP with both total tau (TAU5) and P-tau (PHF-1) | co-IP with CRBN | 0.69 and 1.00 and 0.62 and 0.70 and 0.58 and 0.77 (2×) and 0.75 and 0.89 and 0.79 and 0.65 and 0.90 | 0.69 and 0.67 and 0.61 and 0.70 and 0.98 and 0.73 and 0.71 and 0.65 and 0.75 and 0.62 and 0.97 and 0.81 | 0.43 and 0.42 (2×) and 0.38 and 0.44 and 0.36 (2×) and 0.41 and 0.40 and 0.34 and 0.39 and 0.71 | 0.43 (3×) and 0.41 and 0.38 and 0.36 (2×) and 0.42 and 0.39 and 0.44 (2×) and 0.34 | 0.32 (2×) and 0.31 (3×) and 0.28 and 0.27 and 0.34 and 0.33 and 0.35 and 0.29 and 0.23 | 0.34 (2×) and 0.33 (3×) and 0.30 (2×) and 0.35 (2×) and 0.29 (2×) and 0.49 | 0.76 and 0.74 and 0.68 (2×) and 0.77 and 0.64 and 0.67 and 0.65 and 0.59 and 0.73 and 0.41 and 0.38 | lowest concentration with effective degradation of P-tau S396 and high-molecular-weight P-tau S396 ([1]; 24 hr): 100 nM; Dmax, 24h for P-tau S396 ([1]; 24 hr, averaged across independent replicates (Figure 2—figure supplement 1)): 85%; S396 P-Tau (relative to vehicle) ([1]; QC-01-175 0.001 μM): 0.90 and 1.03 and 1.29 and 1.23 and 0.94 and 0.98; S396 P-Tau (relative to vehicle) ([1]; QC-01-175 0.01 μM): 0.75 and 0.86 and 1.08 and 1.03 and 0.78 and 0.81 and 0.97 and 0.82; S396 P-Tau (relative to vehicle) ([1]; QC-01-175 0.05 μM): 0.69 and 0.79 and 0.99 and 0.94 and 0.72 and 0.75; S396 P-Tau (relative to vehicle) ([1]; QC-01-175 0.1 μM): 0.16 and 0.19 and 0.24 and 0.22 and 0.17 and 0.20 and 0.18; S396 P-Tau (relative to vehicle) ([1]; QC-01-175 0.5 μM): 0.38 and 0.44 and 0.55 and 0.53 and 0.40 and 0.42; S396 P-Tau (relative to vehicle) ([1]; QC-01-175 1 μM): 0.52 and 0.59 and 0.75 and 0.71 and 0.54 and 0.55 and 0.56; S396 P-Tau (relative to vehicle) ([1]; QC-01-175 10 μM): 0.55 and 0.63 and 0.79 and 0.75 and 0.57 and 0.93 and 0.80 and 0.59; % Viability (Relative to Vehicle) ([2]; 5μM compound alone, replicates I-VI, 5 µM): 78.5% and 107.2% and 115.8% and 105.0% and 96.7% and 93.6%; viability at 5 µM ([2]; Homo sapiens, Neuron, read-out: viability after Aβ(1-42) stressor, relative to vehicle-alone control, A152T neurons 8 weeks, 5 μM pre-treatment 8 hr, then 10 μM Aβ(1-42) for 16 hr): 90%; ubiquitinated proteins (Ubi-1) with the same migration as tau after DDB1 IP ([3]; 1 μM ± carfilzomib): increase in ubiquitinated proteins; concentration at which maximal total tau clearance (Dmax, 24h) was achieved [4]: 10 µM; Dmax, 24h for total tau ([4]; averaged across independent replicates (Figure 2—figure supplement 1)): 75%; Dmax, 4h, P-tau S396 ([5]; ELISA, 4 hr, at 500 nM): 80%; Dmax, 24h, P-tau S396 ([5]; ELISA, 24 hr, achieved at 1 μM): 60% |
| O=C(CCc1ccc2c(c1)[nH]c1ccncc12)NCCOCCOCCNc1cccc2c1C(=O)N(C1CCCNC1=O)C2=O (stereo not drawn) [QC-03–075] | no change in neuronal viability | weak detection of total tau and P-tau | low level of CRBN-tau interaction | 0.78 and 0.92 and 0.82 and 0.98 and 0.91 and 0.80 | 0.75 and 0.69 and 0.79 and 0.95 and 0.71 and 0.78 | 0.82 and 0.66 and 0.76 and 0.92 and 0.72 and 0.74 | 0.74 and 0.68 and 0.98 and 0.64 and 0.75 and 0.87 | 1.00 (2×) and 0.92 and 1.05 and 0.87 and 1.03 | 1.05 and 0.97 and 1.10 and 0.91 and 1.00 and 1.08 | 0.62 and 0.57 and 0.65 and 0.54 and 0.69 and 0.64 | effect on levels of P-tau S396 ([1]; 24 hr, all concentrations tested, western blot and ELISA): no effect; viability after Aβ(1-42) stressor, relative to vehicle-alone control ([2]; A152T neurons 8 weeks, 5 μM pre-treatment 8 hr, then 10 μM Aβ(1-42) for 16 hr): little effect on the toxicity of Aβ(1-42); effect on levels of total tau ([4]; all concentrations tested, western blot and ELISA): no significant effect |
